Structures are written as SMILES.

The EC50 is the concentration at which the effect is half-maximal.

For this experiment, the target named is T1, human GPR119 (Homo sapiens, UniProt Q8TDV5).
T1 construct: expression vector for human GPR119 cDNA (Acc. No. NP_848566); expressed in transfected cells
T1 sequence (Q8TDV5 1-335): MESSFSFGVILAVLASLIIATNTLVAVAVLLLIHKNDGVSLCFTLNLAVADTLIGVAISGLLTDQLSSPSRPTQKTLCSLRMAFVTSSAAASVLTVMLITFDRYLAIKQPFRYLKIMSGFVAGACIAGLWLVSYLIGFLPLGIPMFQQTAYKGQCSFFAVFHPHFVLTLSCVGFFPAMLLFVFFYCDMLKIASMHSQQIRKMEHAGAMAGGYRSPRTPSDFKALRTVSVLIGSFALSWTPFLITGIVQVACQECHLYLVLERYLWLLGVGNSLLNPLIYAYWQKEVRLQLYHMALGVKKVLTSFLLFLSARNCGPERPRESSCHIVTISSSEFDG
Description: AlphaScreen cAMP assay in MIN6 cells stably transfected with human GPR119. The settings on record: Min-6/hGPR119 cells, 45 minutes incubation at room temperature. It counts as cell-based. As to the method:
The compounds of formula I according to the invention modulate the activity of the G-protein-coupled receptor GPR119. The effect of the compounds on the activation of GPR119 and on the stimulation of intracellular cAMP concentration is determined using the AlphaScreen cAMP Assay Kit (Cat.No.#6760625R) made by PerkinElmer.
MIN6 cells [Miyazaki J et al. Endocrinology. 1990 July; 127(1):126-32] are stably transfected with an expression vector for human GPR119 cDNA (Acc. No. NP_848566). Min-6/hGPR119 cells are cultured in DMEM, 10% FBS, 50 μM β-mercaptoethanol, 0.3 mg/mL Geniticin, 2 mM GlutaMAX at 37° C. 5% CO2. For the assay, the cells are seeded in Optiplates (white, 384-well, 160W-barcoded, TC, sterile with lid, Cat.No.#6007688 (Perkin Elmer); 10000 cells/well; 50 μl). The plates covered with lids are then incubated for 24 hours at 37° C./5% CO2. After the medium is aspirated from the wells completely, 10 μl of the test compound are added, the compounds are diluted using stimulating buffer (140 mM NaCl, 3.6 mM KCl, 0.5 mM NaH2PO4, 0.5 mM MgSO4, 1.5 mM CaCl2, 10 mM Hepes, 5 mM NaHCO3; pH 7.4. 0.5 mM IBMX and 0.1% BSA, the final DMSO concentration is 1%). After 45 minutes incubation at room temperature (approx. 20° C.), the cAMP concentrations are determined using the AlphaScreen cAMP Assay Kit (Cat.No.#6760625R from PerkinElmer).
On to `CCc1noc(N2CCC(N(C(=O)c3cnc(-c4ccc(C#N)c(F)c4)nc3)C3CC3)CC2)n1` [Example 11, 2-(4-Cyano-3-fluoro-phenyl)-pyrimidine-5-carboxylic acid cyclopropyl-[1-(3-ethyl-[1,2,4]oxadiazol-5-yl)-piperidin-4-yl]-amide], for which the EC50 amounted to 32 nM. With `CCc1cnc(N2CCC(N(C(=O)c3cnc(-n4ccnc4)nc3)C3CC3)CC2)nc1` [Example 12, 2-Imidazol-1-yl-pyrimidine-5-carboxylic acid cyclopropyl-[1-(5-ethyl-pyrimidin-2-yl)-piperidin-4-yl]-amide] the figure was 35 nM. With `CCc1cnc(N2CCC(N(C(=O)c3cnc(-c4ccc(S(C)(=O)=O)cc4)nc3)C3CC3)CC2)nc1` [Example 13, 2-(4-Methanesulfonyl-phenyl)-pyrimidine-5-carboxylic acid cyclopropyl-[1-(5-ethyl-pyrimidin-2-yl)-piperidin-4-yl]-amide] the figure was 24 nM. With `CCc1cnc(N2CCC(N(C(=O)c3cnc(-n4ccnc4C)nc3)C3CC3)CC2)nc1` [Example 14, 2-(2-Methyl-imidazol-1-yl)-pyrimidine-5-carboxylic acid cyclopropyl-[1-(5-ethyl-pyrimidin-2-yl)-piperidin-4-yl]-amide] the figure was 21 nM; with `CCc1cnc(N2CCC(N(C(=O)c3cnc(-n4ccnc4CC)nc3)C3CC3)CC2)nc1` [Example 15, 2-(2-Ethyl-imidazol-1-yl)-pyrimidine-5-carboxylic acid cyclopropyl-[1-(5-ethyl-pyrimidin-2-yl)-piperidin-4-yl]-amide], 60 nM. `CCCc1noc(N2CCC(N(C(=O)c3cnc(-c4ccc(S(C)(=O)=O)cc4)nc3)C3CC3)CC2)n1` [Example 16, 2-(4-Methanesulfonyl-phenyl)-pyrimidine-5-carboxylic acid cyclopropyl-[1-(3-propyl-[1,2,4]oxadiazol-5-yl)-piperidin-4-yl]-amide] showed an EC50 of 159 nM. With `CCc1cnc(N2CCC(N(C(=O)c3ccc(-n4ccnc4)nn3)C3CC3)CC2)nc1` [Example 17, 6-Imidazol-1-yl-pyridazine-3-carboxylic acid cyclopropyl-[1-(5-ethyl-pyrimidin-2-yl)-piperidin-4-yl]-amide] the figure was 964 nM. The value for `CCCc1noc(N2CCC(N(C(=O)c3noc(-c4ccc(C#N)cc4F)n3)C3CC3)CC2)n1` [Example 18, 5-(4-Cyano-2-fluoro-phenyl)-[1,2,4]oxadiazole-3-carboxylic acid cyclopropyl-[1-(3-propyl-[1,2,4]oxadiazol-5-yl)-piperidin-4-yl]-amide] was 7 nM; that for `Cc1cnc(N2CCC(N(C(=O)c3cnc(-n4ccnc4C)nc3)C3CC3)CC2)cn1` [Example 19, 2-(2-Methyl-imidazol-1-yl)-pyrimidine-5-carboxylic acid cyclopropyl-[1-(5-methyl-pyrazin-2-yl)-piperidin-4-yl]-amide] was 97 nM; that for `CS(=O)(=O)c1ccc(-c2ncc(C(=O)N(C3CC3)C3CCN(c4noc(C5CC5)n4)CC3)cn2)cc1` [Example 20, 2-(4-Methanesulfonyl-phenyl)-pyrimidine-5-carboxylic acid cyclopropyl-[1-(5-cyclopropyl-[1,2,4]oxadiazol-3-yl)-piperidin-4-yl]-amide] was 92 nM.

With `CCCc1noc(N2CCC(N(C(=O)c3cnc(-n4ccnc4)nc3)C3CC3)CC2)n1` [Example 21, 2-Imidazol-1-yl-pyrimidine-5-carboxylic acid cyclopropyl-[1-(3-propyl-[1,2,4]oxadiazol-5-yl)-piperidin-4-yl]-amide], the EC50 was 123 nM.

Compound `CCCc1noc(N2CCC(N(C(=O)c3cnc(-n4ccnc4C)nc3)C3CC3)CC2)n1` [Example 22, 2-(2-Methyl-imidazol-1-yl)-pyrimidine-5-carboxylic acid cyclopropyl-[1-(3-propyl-[1,2,4]oxadiazol-5-yl)-piperidin-4-yl]-amide] registered an EC50 of 137 nM. With `CCCc1noc(N2CCC(N(C(=O)c3cnc(-n4ccnc4CC)nc3)C3CC3)CC2)n1` [Example 23, 2-(2-Ethyl-imidazol-1-yl)-pyrimidine-5-carboxylic acid cyclopropyl-[1-(3-propyl-[1,2,4]oxadiazol-5-yl)-piperidin-4-yl]-amide] the figure was 103 nM; with `Cc1nccn1-c1ncc(C(=O)N(C2CC2)C2CCN(c3noc(C4CC4)n3)CC2)cn1` [Example 24, 2-(2-Methyl-imidazol-1-yl)-pyrimidine-5-carboxylic acid cyclopropyl-[1-(5-cyclopropyl-[1,2,4]oxadiazol-3-yl)-piperidin-4-yl]-amide], 83 nM; with `O=C(c1cnc(-n2ccnc2)nc1)N(C1CC1)C1CCN(c2noc(C3CC3)n2)CC1` [Example 25, 2-Imidazol-1-yl-pyrimidine-5-carboxylic acid cyclopropyl-[1-(5-cyclopropyl-[1,2,4]oxadiazol-3-yl)-piperidin-4-yl]-amide], 103 nM. The compound `CCc1nccn1-c1ncc(C(=O)N(C2CC2)C2CCN(c3noc(C4CC4)n3)CC2)cn1` [Example 26, 2-(2-Ethyl-imidazol-1-yl)-pyrimidine-5-carboxylic acid cyclopropyl-[1-(5-cyclopropyl-[1,2,4]oxadiazol-3-yl)-piperidin-4-yl]-amide] displayed an EC50 of 156 nM. With `Cc1nccn1-c1ncc(C(=O)N(C2CC2)C2CCN(c3ncc(C(F)(F)F)cc3F)CC2)cn1` [Example 27, 2-(2-Methyl-imidazol-1-yl)-pyrimidine-5-carboxylic acid cyclopropyl-(3′-fluoro-5′-trifluoromethyl-3,4,5,6-tetrahydro-2H-[1,2′]bipyridinyl-4-yl)-amide] the figure was 6 nM; with `CC(C)c1noc(N2CCC(N(C(=O)c3cc(-c4ccc(C#N)cc4F)no3)C3CC3)CC2)n1` [Example 28, 3-(4-Cyano-2-fluoro-phenyl)-isoxazole-5-carboxylic acid cyclopropyl-[1-(3-isopropyl-[1,2,4]oxadiazol-5-yl)-piperidin-4-yl]-amide], 3 nM. The value for `CC(C)c1noc(N2CCC(N(C(=O)c3cc(-c4ccc(C#N)cc4F)on3)C3CC3)CC2)n1` [Example 29, 5-(4-Cyano-2-fluoro-phenyl)-isoxazole-3-carboxylic acid cyclopropyl-[1-(3-isopropyl-[1,2,4]oxadiazol-5-yl)-piperidin-4-yl]-amide] was 3 nM. With `CC(C)(C)c1noc(N2CCC(N(C(=O)c3cc(-c4ccc(C#N)cc4F)on3)C3CC3)CC2)n1` [Example 30, 5-(4-Cyano-2-fluoro-phenyl)-isoxazole-3-carboxylic acid [1-(3-tert-butyl-[1,2,4]oxadiazol-5-yl)-piperidin-4-yl]-cyclopropyl-amide] the figure was 5 nM. As to `CC(C)(C)c1noc(N2CCC(N(C(=O)c3cc(-c4ccc(C#N)cc4F)no3)C3CC3)CC2)n1` [Example 31, 3-(4-Cyano-2-fluoro-phenyl)-isoxazole-5-carboxylic acid [1-(3-tert-butyl-[1,2,4]oxadiazol-5-yl)-piperidin-4-yl]-cyclopropyl-amide], a half-maximal effect (EC50) was put at 6 nM. The value for `CC(C)(C)c1noc(N2CCC(N(C(=O)c3cnc(-c4cnco4)cn3)C3CC3)CC2)n1` [Example 32, 5-Oxazol-5-yl-pyrazine-2-carboxylic acid [1-(3-tert-butyl-[1,2,4]oxadiazol-5-yl)-piperidin-4-yl]-cyclopropyl-amide] was 14 nM; that for `CC(C)c1noc(N2CCC(N(C(=O)c3cnc(-c4cnco4)cn3)C3CC3)CC2)n1` [Example 33, 5-Oxazol-5-yl-pyrazine-2-carboxylic acid cyclopropyl-[1-(3-isopropyl-[1,2,4]oxadiazol-5-yl)-piperidin-4-yl]amide] was 25 nM; that for `CCc1cnc(N2CCC(N(C(=O)c3ccc(-c4cnco4)nc3)C3CC3)CC2)nc1` [Example 34, N-Cyclopropyl-N-[1-(5-ethyl-pyrimidin-2-yl)-piperidin-4-yl]-6-oxazol-5-yl-nicotinamide] was 27 nM. In turn, `CC(C)c1noc(N2CCC(N(C(=O)c3ccc(-c4cnco4)nc3)C3CC3)CC2)n1` [Example 35, N-Cyclopropyl-N-[1-(3-isopropyl-[1,2,4]oxadiazol-5-yl)-piperidin-4-yl]-6-oxazol-5-yl-nicotinamide] displayed an EC50 of 33 nM. With `CC(C)(C)c1noc(N2CCC(N(C(=O)c3ccc(-c4cnco4)nc3)C3CC3)CC2)n1` [Example 36, N-[1-(3-tert-Butyl-[1,2,4]oxadiazol-5-yl)-piperidin-4-yl]-N-cyclopropyl-6-oxazol-5-yl-nicotinamide] the figure was 46 nM.

These data come from US8921398B2 (Boehringer Ingelheim International GmbH, priority 2011, dated 2014).
